Measurements from patent publication US20190369122A1, “METABOLIC DISORDERS” (priority 2016, published 2019).

How the values were obtained:
[1] = tested on: mTORC2; experiment: mTOR modification in mTORC2 (Rictor immunoprecipitation), HEK293; format: cell-based, human
Experimental: Snap-frozen liver and harvested cells were lysed in buffer containing 50 mM Tris-HCl (pH 7.4), 150 mM NaCl, 1 mM EDTA, 1 mM Na3VO4, 20 mM NaF, 10 mM glycerophosphate, 1 mM PMSF, 10% glycerol, 1% Triton X-100 and protease inhibitor cocktail. For immunoprecipitation, the cell lysates were obtained in 0.3% CHAPS-containing lysis buffer, sonicated and centrifuged at 20,000 g for 15 min at 4° C., and the supernatant was incubated with 20 μl of anti-FLAG beads (Sigma) at 4° C. for 4 h under gentle agitation.

[2] = tested on: CONVR mice; experiment: Metabolic cages (PhenoMaster) in CONVR mice; format: in vivo, mouse; details: 100 μg i.p. twice a day for 3 days
Experimental: Mice were singly housed for two days before being transferred to the PhenoMaster cages, and allowed an additional 2 days to acclimatize to the new cage before taking measurements. Parameters were automatically measured every 15 min for 5 days. During the measurements, the mice had free access to water and food. […] Oxygen consumption (VO2) was calculated from measurements of oxygen and carbon dioxide concentration in the reference cage compared to the sample cage. Measurements of oxygen consumption and energy expenditure were adjusted to lean body mass, which was determined by MRI (EchoMRI, Houston, Tex., USA).

[3] = tested on: HEK293 cells; experiment: Immunofluorescence of mTOR and LAMP2 in HEK293 cells; format: cell-based, human; details: amino acid-deprived HEK293; 100 μM for 1 h
Experimental: Cells were grown on poly-L-lysine (Sigma) coated 4 well chamber slides, fixed with 4% paraformaldehyde for 15 min at 37° C., then washed with glycine-PBS and permeablized with 0.3% Triton X-100 for 10 min. After blocking with 3% BSA in PBS, cells were stained for mTOR and LAMP2. Images were obtained by confocal microscope.

[4] = tested on: amino acid-deprived primary hepatocytes; experiment: Amino acid-deprived primary hepatocytes (immunoblot); format: cell-based, mouse; details: absence of amino acids; 100 μM for 2 h
Experimental: Primary hepatocytes were isolated from C57BL/6J mice by digesting liver with perfusion of collagenase type IV as described previously. After perfusion, 16×10^5 cells were plated on collagen-coated 60 mm dishes in Dulbecco's modified Eagle's medium (DMEM)/F12 supplemented with fetal bovine serum (FBS), penicillin/streptomycin and 100 nM dexamethasone. After 4 h, the medium was changed to DMEM/F12 containing penicillin/streptomycin.

Q: With O=C(O)CCc1cnc[nH]1 [imidazole propionate] as the molecule, how does the “modulation of mTORC2” value ([1]; HEK293, 2 h incubation) read?
A: The value was “not”.

Q: And the “mTOR S2448 or S2481 phosphorylation in mTORC2” value ([1]; Rictor immunoprecipitation)?
A: The value was “unaffected”.

Q: And the “energy expenditure in the early dark phase” value [2]?
A: Its value is “significantly reduced”.

Q: And the total locomotor activity [2]?
A: The total locomotor activity was “not significantly reduced”.

Q: What about the “lysosomal localization of mTOR” value [3] of the same molecule?
A: The value was “induced”.

Q: What about the S6K1 phosphorylation [4] of the same molecule?
A: The S6K1 phosphorylation was “strongly induced”.
